Molecular target: T1, SIRT1 (Homo sapiens, UniProt Q96EB6)
T1 sequence (Q96EB6 1-747): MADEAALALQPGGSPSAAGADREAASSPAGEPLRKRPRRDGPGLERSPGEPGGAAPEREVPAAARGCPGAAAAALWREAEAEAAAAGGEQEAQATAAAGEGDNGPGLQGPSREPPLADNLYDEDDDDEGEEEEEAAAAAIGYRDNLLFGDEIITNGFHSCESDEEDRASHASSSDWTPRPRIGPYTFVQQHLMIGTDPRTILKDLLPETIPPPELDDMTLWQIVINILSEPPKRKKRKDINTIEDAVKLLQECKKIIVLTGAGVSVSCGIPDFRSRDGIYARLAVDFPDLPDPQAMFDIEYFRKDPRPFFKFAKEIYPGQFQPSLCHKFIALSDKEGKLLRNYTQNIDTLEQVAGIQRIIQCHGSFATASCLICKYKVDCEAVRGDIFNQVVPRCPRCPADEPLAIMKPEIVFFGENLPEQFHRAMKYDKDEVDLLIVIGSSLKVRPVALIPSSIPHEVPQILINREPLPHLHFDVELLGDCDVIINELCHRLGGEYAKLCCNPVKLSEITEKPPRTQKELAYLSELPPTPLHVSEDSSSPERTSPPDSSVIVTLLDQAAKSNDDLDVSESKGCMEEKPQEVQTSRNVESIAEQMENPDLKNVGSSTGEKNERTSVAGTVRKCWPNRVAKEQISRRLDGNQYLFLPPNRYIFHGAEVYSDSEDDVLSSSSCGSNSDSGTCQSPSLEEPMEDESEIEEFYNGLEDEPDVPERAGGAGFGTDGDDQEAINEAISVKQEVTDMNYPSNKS
Experiment: Trp mass spectrometry assay of SIRT1 activation
Assay type: biochemical
Conditions: Trp peptide Ac-R-H-K-K(Ac)-W-NH2 0.5 μM, 120 μM βNAD+, 10 nM SIRT1, 25 min, 25° C.
From the text: Mass spectrometry based assays were used to identify modulators of SIRT1 activity. […] The peptide was labeled with the fluorophore 5TMR (excitation 540 nm/emission 580 nm) at the C-terminus. The sequence of the peptide substrate was based on p53 with several modifications. In addition, the methionine residue naturally present in the sequence was replaced with the norleucine because the methionine may be susceptible to oxidation during synthesis and purification.
The Trp mass spectrometry assay was conducted as follows. […] The SIRT1 protein was obtained by cloning the SirT1 gene into a T7-promoter containing vector, which was then expressed in BL21(DE3) bacterial cells and purified as described in further detail below. Test compound was added at varying concentrations to this reaction mixture and the resulting reactions were monitored. After the 25 minute incubation with SIRT1, 10 μL of 10% formic acid was added to stop the reaction. The resulting reactions were sealed and frozen for later mass spec analysis. The relative SIRT1 activity was then determined by measuring the amount of O-acetyl-ADP-ribose (OAADPR) formed (or, alternatively, the amount of deacetylated Trp peptide generated) by the NAD-dependent sirtuin deacetylation reaction in the presence of varying concentrations of the test compound versus control reactions lacking the test compound.
The degree to which the test agent activated deacetylation by SIRT1 was expressed as EC1.5 (i.e., the concentration of compound required to increase SIRT1 activity by 50% over the control lacking test compound), and Percent Maximum Activation (i.e., the maximum activity relative to control (100%) obtained for the test compound).
This time point was the same as that used for test compounds and, within the linear range, the endpoint represents a change in velocity.
For the above assay, SIRT1 protein was expressed and purified as follows. The SirT1 gene was cloned into a T7-promoter containing vector and transformed into BL21(DE3). The protein was expressed by induction with 1 mM IPTG as an N-terminal His-tag fusion protein at 18° C. overnight and harvested at 30,000×g. Cells were lysed with lysozyme in lysis buffer (50 mM Tris-HCl, 2 mM Tris[2-carboxyethyl]phosphine (TCEP), 10 μM ZnCl2, 200 mM NaCl) and further treated with sonication for 10 min for complete lysis. The protein was purified over a Ni-NTA column (Amersham) and fractions containing pure protein were pooled, concentrated and run over a sizing column (Sephadex S200 26/60 global). The peak containing soluble protein was collected and run on an Ion-exchange column (MonoQ). Gradient elution (200 mM-500 mM NaCl) yielded pure protein. This protein was concentrated and dialyzed against dialysis buffer (20 mM Tris-HCl, 2 mM TCEP) overnight. The protein was aliquoted and frozen at −80° C. until further use.
“NT” means not tested; “ND” means not determinable.

| TRP Activity (EC1.5, concentration of compound required to increase SIRT1 activity by 50% over control) | TRP MAX RESP (percent maximum fold activation relative to control) | Compound |
| --- | --- | --- |
| A (EC1.5<1 μM) | A (Fold activation ≥150%) | O=C(Nc1ccnc(OC[C@H](O)CO)n1)N1c2nc(-c3cccc(C(F)(F)F)c3)ncc2N2CCC[C@H]1C2 [Example 88, (9S)—N-(2-((R)-2,3-dihydroxypropoxy)pyrimidin-4-yl)-2-(3-(trifluoromethyl)phenyl)-8,9-dihydro-6H-5,9-methanopyrimido[4,5-b][1,4]diazocine-10(7H)-carboxamide] |
| B (EC1.5 1-25 μM) | A (Fold activation ≥150%) | O=C(Nc1cnc(OC[C@@H](O)CO)nc1)N1c2nc(-c3cccc(C(F)(F)F)c3)ncc2N2CC[C@H]1C2 [Example 53, (8S)—N-(2-((S)-2,3-dihydroxypropoxy)pyrimidin-5-yl)-2-(3-(trifluoromethyl)phenyl)-7,8-dihydro-5,8-methanopyrimido[4,5-b][1,4]diazepine-9(6H)-carboxamide] |
| B (EC1.5 1-25 μM) | A (Fold activation ≥150%) | C[C@@H](NC(=O)c1ncc2c(n1)N(C(=O)Nc1cccc(OC[C@@H](O)CO)n1)[C@H]1CCCN2C1)C(F)(F)F [Example 117, (9S)—N10-(6-((S)-2,3-dihydroxypropoxy)pyridin-2-yl)-N2-((R)-1,1,1-trifluoropropan-2-yl)-8,9-dihydro-6H-5,9-methanopyrimido[4,5-b][1,4]diazocine-2,10(7H)-dicarboxamide] |
| B (EC1.5 1-25 μM) | A (Fold activation ≥150%) | Cc1ncc(-c2ccnc(NC(=O)N3c4nc(C(=O)N[C@H](C)C(F)(F)F)ncc4N4CC[C@H]3C4)c2)o1 [Example 115, (8S)—N9-(4-(2-methyloxazol-5-yl)pyridin-2-yl)-N2-((R)-1,1,1-trifluoropropan-2-yl)-7,8-dihydro-5,8-methanopyrimido[4,5-b][1,4]diazepine-2,9(6H)-dicarboxamide] |
| A (EC1.5<1 μM) | A (Fold activation ≥150%) | O=C(Nc1ccc(OC[C@H](O)CO)cn1)N1c2nc(-c3cccc(C(F)(F)F)c3)ncc2N2CC[C@H]1C2 [Example 40, (8S)—N-(5-((R)-2,3-dihydroxypropoxy)pyridin-2-yl)-2-(3-(trifluoromethyl)phenyl)-7,8-dihydro-5,8-methanopyrimido[4,5-b][1,4]diazepine-9(6H)-carboxamide] |
| B (EC1.5 1-25 μM) | A (Fold activation ≥150%) | Cc1ccc(-c2ncc3c(n2)N(C(=O)Nc2cccnc2)[C@H]2CCN3C2)cn1 [Example 5, (8S)-2-(6-methylpyridin-3-yl)-N-(pyridin-3-yl)-7,8-dihydro-5,8-methanopyrimido[4,5-b][1,4]diazepine-9(6H)-carboxamide] |
| A (EC1.5<1 μM) | A (Fold activation ≥150%) | Cc1nc(C(=O)N[C@H](C)C(F)(F)F)nc2c1N1CCC[C@@H](C1)N2C(=O)Nc1cc(OC[C@H](O)CO)ccn1 [Example 67, (9S)—N10-(4-((R)-2,3-dihydroxypropoxy)pyridin-2-yl)-4-methyl-N2-((R)-1,1,1-trifluoropropan-2-yl)-8,9-dihydro-6H-5,9-methanopyrimido[4,5-b][1,4]diazocine-2,10(7H)-dicarboxamide] |
| A (EC1.5<1 μM) | A (Fold activation ≥150%) | C[C@@H](NC(=O)c1ncc2c(n1)N(C(=O)Nc1ccc(OC[C@@H](O)CO)cn1)[C@H]1CCCN2C1)C(F)(F)F [Example 119, (9S)—N10-(5-((S)-2,3-dihydroxypropoxy)pyridin-2-yl)-N2-((R)-1,1,1-trifluoropropan-2-yl)-8,9-dihydro-6H-5,9-methanopyrimido[4,5-b][1,4]diazocine-2,10(7H)-dicarboxamide] |
| B (EC1.5 1-25 μM) | A (Fold activation ≥150%) | Cc1cc(-c2ncc3c(n2)N(C(=O)Nc2cccnc2)[C@H]2CCN3C2)ccn1 [Example 6, (8S)-2-(2-methylpyridin-4-yl)-N-(pyridin-3-yl)-7,8-dihydro-5,8-methano pyrimido[4,5-b][1,4]diazepine-9(6H)-carboxamide] |
| A (EC1.5<1 μM) | A (Fold activation ≥150%) | C[C@@H](NC(=O)c1ncc2c(n1)N(C(=O)Nc1ccccn1)[C@H]1CCN2C1)C(F)(F)F [Example 59, (8S)—N9-(pyridin-2-yl)-N2-((R)-1,1,1-trifluoropropan-2-yl)-7,8-dihydro-5,8-methanopyrimido[4,5-b][1,4]diazepine-2,9(6H)-dicarboxamide] |
| B (EC1.5 1-25 μM) | A (Fold activation ≥150%) | Cc1nc(-c2cccc(C(F)(F)F)c2)nc2c1N1CC[C@@H](C1)N2C(=O)Nc1nccc(OC[C@H](O)CO)n1 [Example 56, (8S)—N-(4-((R)-2,3-dihydroxypropoxy)pyrimidin-2-yl)-4-methyl-2-(3-(trifluoromethyl)phenyl)-7,8-dihydro-5,8-methanopyrimido[4,5-b][1,4]diazepine-9(6H)-carboxamide] |
| B (EC1.5 1-25 μM) | A (Fold activation ≥150%) | Cc1nc(-c2cccc(C(F)(F)F)c2)nc2c1N1CC[C@@H](C1)N2C(=O)Nc1ccnc(OC[C@@H](O)CO)c1 [Example 57, (8S)—N-(2-((S)-2,3-dihydroxypropoxy)pyridin-4-yl)-4-methyl-2-(3-(trifluoromethyl)phenyl)-7,8-dihydro-5,8-methanopyrimido[4,5-b][1,4]diazepine-9(6H)-carboxamide] |
| B (EC1.5 1-25 μM) |  | CN(C)c1ccc(-c2ncc3c(n2)N(C(=O)Nc2ccccn2)[C@H]2CCN3C2)cn1 [Example 9, (8S)-2-(6-(dimethylamino)pyridin-3-yl)-N-(pyridin-2-yl)-7,8-dihydro-5,8-methanopyrimido[4,5-b][1,4]diazepine-9(6H)-carboxamide] |
